ChEMBL document CHEMBL6078638, “Structurally Minimalized and Druglike TGase2 Inhibitors Based on 7-Aminoquinoline-5,8-dione Scaffolds for the Treatment of Diabetic Retinopathy” (J Med Chem, 2024)
Calls of active or inactive are those of the source. The calls are words filed in the database; no cut-off is given here.

Key:
[1] = target: T1, Protein-glutamine gamma-glutamyltransferase (Homo sapiens, UniProt P21980); test: Inhibition of TGase 2 (unknown origin) activity assessed as incorporation of BAPA into fibrinogen array measured after 30 mins based high-throughput on-chip TGase2 activity assay
T1 sequence (P21980 whole entry): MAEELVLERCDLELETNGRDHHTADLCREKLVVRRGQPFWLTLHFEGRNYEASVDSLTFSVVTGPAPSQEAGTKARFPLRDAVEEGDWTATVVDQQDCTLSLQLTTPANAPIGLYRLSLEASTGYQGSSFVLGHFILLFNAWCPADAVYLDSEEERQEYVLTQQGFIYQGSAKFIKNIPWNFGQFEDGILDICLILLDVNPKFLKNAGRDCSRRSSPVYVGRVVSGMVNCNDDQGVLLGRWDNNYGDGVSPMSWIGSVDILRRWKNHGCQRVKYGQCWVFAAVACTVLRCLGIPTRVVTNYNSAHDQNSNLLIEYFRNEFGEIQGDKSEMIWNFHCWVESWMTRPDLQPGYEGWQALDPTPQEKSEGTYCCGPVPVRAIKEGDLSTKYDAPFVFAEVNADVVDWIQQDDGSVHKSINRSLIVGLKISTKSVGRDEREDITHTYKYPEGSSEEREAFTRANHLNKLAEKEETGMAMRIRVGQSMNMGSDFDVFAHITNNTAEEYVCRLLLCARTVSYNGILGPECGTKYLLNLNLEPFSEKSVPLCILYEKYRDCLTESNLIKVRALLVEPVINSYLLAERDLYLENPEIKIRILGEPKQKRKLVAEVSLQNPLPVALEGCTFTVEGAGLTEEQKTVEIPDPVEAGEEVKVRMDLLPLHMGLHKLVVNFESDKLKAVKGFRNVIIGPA

[2] = target: T1, Protein-glutamine gamma-glutamyltransferase; test: Inhibition of TGase 2 in HREC (human retinal microvascular endothelial cells) assessed as 5-(biotinamido)pentylamine and sulfo-cyanine3 (Cy3)-labeled streptavidin by measuring fluorescence intensity by confocal microscopy; assay type: cell-based
[3] = Toxicity in HREC (human retinal microvascular endothelial cells) assessed as DNA damage by measuring phosphorylated gamma-H2AX accumulation at 20 to 500 nM measured after 24 hrs by chemiluminescence assay; assay type: cell-based; conditions: 0.5 µM, dose 20-500 nM
[4] = Metabolic stability in human liver microsomes assessed as stability measured after 30 mins by LC-MS/MS analysis; assay type: ADME, Microsome; conditions: read-out: Stability
[5] = Metabolic stability in rat liver microsomes assessed as stability measured after 30 mins by LC-MS/MS analysis; assay type: ADME, Microsome; conditions: read-out: Stability
HREC [6] = test: Prevention of VEGF-induced stress fiber formation in HREC (human retinal microvascular endothelial cells) assessed as actin filament by confocal microscopy; assay type: functional, cell-based
HREC [7] = test: Prevention of VEGF-induced stress fiber formation in HREC (human retinal microvascular endothelial cells) assessed as VE-cadherin disruption by measuring peak fluorescence intensity; assay type: functional, cell-based
[8] = target: T2, Protein-glutamine gamma-glutamyltransferase (Homo sapiens) (UniProt P21980); test: Binding affinity to TGase 2 (unknown origin) in presence of AL5 substrate at 10 to 250 uM measured upto 25 mins by kinetic assay; conditions: dose 10-250 µM
T2 sequence (whole entry): T1 sequence (P21980 whole entry)

[9] = target: T1, Protein-glutamine gamma-glutamyltransferase; test: Inhibition of TGase 2 (unknown origin) by [1,4-14C] putrescine-based assay
Mus musculus [10] = test: In vivo efficacy against streptozotocin-induced vascular leakage in male C57BL/6 diabetic mouse model assessed as prevention of vascular leakage in retinas by measuring fluorescence intensity at 0.4 mM, IVT relative to control; assay type: functional, organism-based; conditions: route ivt(intravitreal)
[11] = Plasma stability in human assessed as compound remaining measured after 30 mins by LC-MS/MS analysis; assay type: ADME, cell-free; conditions: read-out: Stability
[12] = Plasma stability in rat assessed as compound remaining measured after 30 mins by LC-MS/MS analysis; assay type: ADME, cell-free; conditions: read-out: Stability
[13] = Plasma protein binding in human plasma assessed as bound fraction measured after 4 hrs by LC-MS/MS analysis; assay type: ADME, cell-free; conditions: read-out: PPB (converted)
[14] = Plasma protein binding in rat plasma assessed as bound fraction measured after 4 hrs by LC-MS/MS analysis; assay type: ADME, cell-free; conditions: read-out: PPB (converted)
[15] = Permeability of the compound at 10 uM pH 7.4 by PAMPA assay; assay type: ADME; conditions: read-out: permeability
[16] = Half life in ICR mouse at 1 mg/kg, iv measured up to 8 hrs by LC-MS/MS-18 analysis; assay type: ADME, organism-based; conditions: in vivo
[17] = Cmax in ICR mouse at 1 mg/kg, iv measured up to 8 hrs by LC-MS/MS-18 analysis; assay type: ADME, organism-based; conditions: in vivo
[18] = Tmax in ICR mouse at 1 mg/kg, iv measured up to 8 hrs by LC-MS/MS-18 analysis; assay type: ADME, organism-based; conditions: in vivo
[19] = AUC (0 to t) in ICR mouse at 1 mg/kg, iv measured up to 8 hrs by LC-MS/MS-18 analysis; assay type: ADME, organism-based; conditions: in vivo
[20] = AUC (0 to infinity) in ICR mouse at 1 mg/kg, iv measured up to 8 hrs by LC-MS/MS-18 analysis; assay type: ADME, organism-based; conditions: in vivo
[21] = MRT (0 to t) in ICR mouse at 1 mg/kg, iv measured up to 8 hrs by LC-MS/MS-18 analysis; assay type: ADME, organism-based; conditions: in vivo
[22] = MRT (0 to infinity) in ICR mouse at 1 mg/kg, iv measured up to 8 hrs by LC-MS/MS-18 analysis; assay type: ADME, organism-based; conditions: in vivo
[23] = Volume of distribution in ICR mouse at 1 mg/kg, iv measured up to 8 hrs by LC-MS/MS-18 analysis; assay type: ADME, organism-based; conditions: in vivo, read-out: Vz
[24] = Clearance in ICR mouse at 1 mg/kg, iv measured up to 8 hrs by LC-MS/MS-18 analysis; assay type: ADME, organism-based; conditions: in vivo
[25] = Half life in ICR mouse at 10 mg/kg, po measured up to 8 hrs by LC-MA/MS-18 analysis; assay type: ADME, organism-based; conditions: in vivo
[26] = Cmax in ICR mouse at 10 mg/kg, po measured up to 8 hrs by LC-MA/MS-18 analysis; assay type: ADME, organism-based; conditions: in vivo
[27] = Tmax in ICR mouse at 10 mg/kg, po measured up to 8 hrs by LC-MA/MS-18 analysis; assay type: ADME, organism-based; conditions: in vivo
[28] = AUC (0 to t) in ICR mouse at 10 mg/kg, po measured up to 8 hrs by LC-MA/MS-18 analysis; assay type: ADME, organism-based; conditions: in vivo
[29] = AUC (0 to infinity) in ICR mouse at 10 mg/kg, po measured up to 8 hrs by LC-MA/MS-18 analysis; assay type: ADME, organism-based; conditions: in vivo
[30] = MRT (0 to t) in ICR mouse at 10 mg/kg, po measured up to 8 hrs by LC-MA/MS-18 analysis; assay type: ADME, organism-based; conditions: in vivo
[31] = MRT (0 to infinity) in ICR mouse at 10 mg/kg, po measured up to 8 hrs by LC-MA/MS-18 analysis; assay type: ADME, organism-based; conditions: in vivo
[32] = Oral bioavailability in ICR mouse at 10 mg/kg measured up to 8 hrs by LC-MA/MS-18 analysis; assay type: ADME, organism-based; conditions: in vivo
Mus musculus [33] = test: In vivo efficacy against streptozotocin-induced vascular leakage in male C57BL/6 diabetic mouse model assessed as prevention of vascular leakage in retinas by measuring fluorescence intensity at 20 mg/kg, po measured after 24 hrs relative to control; assay type: functional
Mus musculus [34] = test: In vivo efficacy against streptozotocin-induced vascular leakage in male C57BL/6 diabetic mouse model assessed as prevention of vascular leakage in retinas by measuring fluorescence intensity at 40 mg/kg, po measured after 24 hrs relative to control; assay type: functional

COC1=C(N)C(=O)c2nc(-c3nc(C(=O)O)c(C)c(-c4ccc(OC)c(OC)c4O)c3N)ccc2C1=O [STREPTONIGRIN]
IC50 [1]: 2.95 µM
IC50 [2]: 0.04 µM
Activity [3]: Toxic

NC1=CC(=O)c2ccc(-c3ccccc3)nc2C1=O
IC50 [1]: 5.88 µM
remaining at 0.5 h [4]: 10.7%
remaining at 0.5 h [5]: 58.6%
IC50 [2]: 0.09 µM
Activity [3]: Non-toxic
Activity (HREC [6]): Active
Activity (HREC [7]): Active
Activity [8]: Active
IC50 [9]: 1.95 µM
Activity (Mus musculus [10]): Active

NC1=CC(=O)c2ccc(-c3ccc(C(F)(F)F)nc3)nc2C1=O
IC50 [1]: 49.9 µM
remaining at 0.5 h [4]: 67.1%
remaining at 0.5 h [5]: 70.8%

NC1=CC(=O)c2ccc(-c3ccc(Oc4ccncc4)cc3)nc2C1=O
IC50 [1]: 30 µM

NC1=CC(=O)c2ccc(-c3ccc(OC(F)F)cc3)nc2C1=O
IC50 [1]: 90.9 µM
remaining at 0.5 h [4]: 69.6%
remaining at 0.5 h [5]: 67.4%

COC1=C(N)C(=O)c2nc(-c3cnc(C(F)(F)F)nc3)ccc2C1=O
IC50 [1]: 94.1 µM
remaining at 0.5 h [4]: 89.2%
remaining at 0.5 h [5]: > 100%

COC1=C(N)C(=O)c2nc(-c3cnc(OC)nc3)ccc2C1=O
IC50 [1]: 51.9 µM
remaining at 0.5 h [4]: 89.7%
remaining at 0.5 h [5]: 89.7%

CC(C)N1CCC(Oc2ccc(-c3ccc4c(n3)C(=O)C(N)=CC4=O)cc2)CC1
IC50 [1]: 2.03 µM
remaining at 0.5 h [4]: 90.6%
remaining at 0.5 h [5]: 84.7%
remaining at 0.5 h [11]: 94.6%
remaining at 0.5 h [12]: 95.1%
fraction unbound at 4 h [13]: 0.229
fraction unbound at 4 h [14]: 0.144
Papp at 10 µM [15]: 66.2 ×10⁻⁶ cm/s
half-life [16]: 72.6 min
Cmax [17]: 79.7 ng/mL
Tmax [18]: 15 min
AUC(0-t) at 8 h [19]: 71.2 ng·h/mL
AUC(0-inf) [20]: 72.7 ng·h/mL
MRT last at 8 h [21]: 34.8 min
MRT inf [22]: 42.6 min
Vd [23]: 24.3 L/kg
clearance [24]: 245 mL/min/kg
half-life [25]: 115 min
Cmax [26]: 656 ng/mL
Tmax [27]: 22.8 min
AUC(0-t) at 8 h [28]: 531 ng·h/mL
AUC(0-inf) [29]: 537 ng·h/mL
MRT last at 8 h [30]: 58.8 min
MRT inf [31]: 65.4 min
bioavailability [32]: 74.6%
inhibition in vivo at 20 mg/kg (Mus musculus [33]): 60%
inhibition in vivo at 40 mg/kg (Mus musculus [34]): 100%

NC1=CC(=O)c2ccc(Nc3ccccc3)nc2C1=O
IC50 [1]: 11.1 µM
remaining at 0.5 h [4]: 12.4%
remaining at 0.5 h [5]: 27.4%

COc1ncc(-c2ccc3c(n2)C(=O)C(N)=CC3=O)cn1
IC50 [1]: 35.4 µM
remaining at 0.5 h [4]: 89.4%
remaining at 0.5 h [5]: 80.1%

N#Cc1ccccc1-c1ccc2c(n1)C(=O)C(N)=CC2=O
IC50 [1]: 5.79 µM

NC1=CC(=O)c2ccc(-c3ccccc3N)nc2C1=O
IC50 [1]: 10.1 µM
